Test results taken from US20260287586A1, “METHODS OF TREATING TKI-RESISTANT AND SDH-DEFICIENT GIST” (priority 2023, published 2026).

Legend:
[1] = tested on: PC12 or PC12 #5F7 (SDHB KD) cells; experiment: Cell death assay (AO/PI staining); type: cell-based, rat; conditions: 24 hours exposure; FIG. 2B left
Method: (§1) Cells were extracted from SDH-deficient patient tumor tissues, seeded into 96-well plates, and incubated for 24 hours in GIST culture medium. […] Right panel, Colony formation assay in renal carcinoma cells 7860 (SDHB-wild-type) and OS-RC-2 (SDHB-deficient). Cells were seeded into 6-well plates and incubated overnight in complete culture medium.
Rat pheochromocytoma cells (PC12 or PC12 SDHB KD cells PC12 #5F7) were seeded into 24-well plates and incubated overnight in complete culture medium. […] The cell suspension was mixed at a 1:1 ratio with Viastain™ AOPI Staining solution (acridine orange/propidium iodide, #2210170205, Nexelcom Bioscience, Lawrence, MA, USA). After staining, dead cells were counted on a Cellometer® Auto 2000 Cell Counter (Nexelcom).

[2] = tested on: GIST430 cell-derived xenograft; experiment: Imatinib-resistant GIST430 cell-derived xenograft model; type: in vivo; conditions: olverembatinib 15 mg/kg every other day for 3 weeks; lisaftoclax 50 mg/kg daily for 3 weeks; alone or combined
From the text: Therefore, selective inhibition of BCL-2, aided by TKI-mediated MCL-1 and BCL-XL inhibition, markedly augmented cleavage of caspase-3 and poly(ADP-ribose) polymerase 1 (PARP-1), thus triggering apoptosis and subsequently enhancing antitumor effects.

[3] = tested on: OS-RC-2 (SDHB-deficient) and 785-O (SDHB-competent) renal carcinoma cells; experiment: Cell colony formation assay; type: cell-based; conditions: 7 days (SDHB-competent line), 10 days (OS-RC-2); FIG. 2B right
Method: as §1
For the colony formation assay, 1,000 cells were plated in 6-well plates per well, incubated for 7 to 14 days, then stained with 0.1% crystal violet and colony numbers counted.

Cc1ccc(C(=O)Nc2ccc(CN3CCN(C)CC3)c(C(F)(F)F)c2)cc1C#Cc1cnc2[nH]ncc2c1 [Olverembatinib, olverembatinib]
cell death activity in SDHB KD versus parental cells [1]: dose-dependently more potent activity in PC12 #5F7 than in parental PC12 cells | Tumor growth inhibition (TGI) rate [2]: 57.6% | inhibition of clone formation, OS-RC-2 versus 785-O [3]: more significantly inhibited
